Test results from patent US7476673B2, “Disubstituted chalcone oximes as selective agonists of RARγ retinoid receptors” (Allergan, Inc., priority 2003, dated 2009).
Blank lines part the entries; values can stand above or below the molecule they belong to.

Columns and labels:
RARγ [1] = test: chimeric receptor transactivation assay, RARγ; type: cell-based; settings: judged from Table 1 data, versus RARα and RARβ
Procedure: (§1) The compounds of the invention were tested in certain assays for activity as agonists of RAR and RXR retinoid receptors. Specifically, one such assay is a chimeric receptor transactivation assay which tests for agonist-like activity in the RARα, RARβ and RARγ receptor subtypes, and which is based on work published by Feigner P. L. and Holm M. (1989) Focus, 112 is described in detail in U.S. Pat. No. 5,455,265. The specification of U.S. Pat. No. 5,455,265 is hereby expressly incorporated by reference.
(§2) A holoreceptor transactivation assay and a ligand binding assay which measure the antagonist/agonist like activity of the compounds of the invention, or their ability to bind to the several retinoid receptor subtypes, respectively, are described in published PCT Application No. WO WO93/11755 (particularly on pages 30-33 and 37-41) published on Jun. 24, 1993, the specification of which is also incorporated herein by reference. A detailed experimental procedure for holoreceptor transactivations has been described by Heyman et al. Cell 68, 397-406, (1992); Allegretto et al. J. Biol. Chem. 268, 26625-26633, and Mangelsdorf et al. The Retinoids: Biology, Chemistry and Medicine, pp 319-349, Raven Press Ltd., New York, which are expressly incorporated herein by reference. The results obtained in this assay are expressed in EC50 numbers, as they are also in the chimeric receptor transactivation assay. The results of the ligand binding assay are expressed in Ki numbers. (See Cheng et al. Biochemical Pharmacology Vol. 22 pp 3099-3108, expressly incorporated herein by reference.)
(§3) Efficacy in a transactivation assay is expressed as a percentage of the maximum potency attained by the compound compared to a standard which, in this case, is the compound 4-[(1E)-2-(5,6,7,8-tetrahydro-5,5,8,8-tetramethyl-2-naphthalenyl)-1-propenyl]-benzoic acid. (TTNPB) This standard compound is described in PCT Publication WO 2002077169 A2.
(§4) Table 1 discloses the activity of certain exemplary compounds of the invention in the above-described chimeric RAR receptor transactivation and binding assays.

RARγ [2] = target: T1, RARγ (Homo sapiens, UniProt P13631); test: ligand binding assay, RARγ; settings: results expressed in Ki numbers, read-out: RAR Binding γ
T1 sequence (P13631 1-454): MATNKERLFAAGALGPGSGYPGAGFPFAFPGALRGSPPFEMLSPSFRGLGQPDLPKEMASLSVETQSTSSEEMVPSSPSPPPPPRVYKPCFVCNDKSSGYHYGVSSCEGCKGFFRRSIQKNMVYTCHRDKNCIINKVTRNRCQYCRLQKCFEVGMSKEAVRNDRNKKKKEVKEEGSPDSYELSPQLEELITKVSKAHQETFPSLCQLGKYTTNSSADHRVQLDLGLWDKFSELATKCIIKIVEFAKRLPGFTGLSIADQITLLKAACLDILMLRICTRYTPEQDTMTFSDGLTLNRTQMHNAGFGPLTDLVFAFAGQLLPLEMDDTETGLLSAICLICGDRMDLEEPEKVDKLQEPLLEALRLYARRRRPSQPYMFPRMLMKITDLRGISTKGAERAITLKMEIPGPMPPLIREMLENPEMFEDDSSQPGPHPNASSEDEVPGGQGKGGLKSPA
Source text: as §2, §4

RARα [3] = target: T2, RARα (Homo sapiens, UniProt P10276); test: ligand binding assay, RARα; settings: results expressed in Ki numbers, read-out: RAR Binding α
T2 sequence (P10276 1-462): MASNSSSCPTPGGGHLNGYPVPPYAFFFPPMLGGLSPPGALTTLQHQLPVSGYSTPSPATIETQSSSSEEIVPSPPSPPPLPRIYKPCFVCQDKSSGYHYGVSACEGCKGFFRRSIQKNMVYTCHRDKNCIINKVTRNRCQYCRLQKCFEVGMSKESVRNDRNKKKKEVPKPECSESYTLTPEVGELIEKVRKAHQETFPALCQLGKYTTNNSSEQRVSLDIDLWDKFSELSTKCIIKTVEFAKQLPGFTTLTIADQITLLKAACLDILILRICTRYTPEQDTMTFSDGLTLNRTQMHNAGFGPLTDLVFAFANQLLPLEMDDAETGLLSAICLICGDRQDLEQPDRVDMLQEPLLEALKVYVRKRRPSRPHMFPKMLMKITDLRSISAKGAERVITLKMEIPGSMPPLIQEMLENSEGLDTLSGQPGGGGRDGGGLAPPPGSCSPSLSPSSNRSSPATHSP
Source text: as §2, §4

RARβ [4] = target: T3, RARβ (Homo sapiens, UniProt P10826); test: chimeric receptor transactivation assay, RARβ; type: cell-based
T3 sequence (P10826 183-455 limits assumed): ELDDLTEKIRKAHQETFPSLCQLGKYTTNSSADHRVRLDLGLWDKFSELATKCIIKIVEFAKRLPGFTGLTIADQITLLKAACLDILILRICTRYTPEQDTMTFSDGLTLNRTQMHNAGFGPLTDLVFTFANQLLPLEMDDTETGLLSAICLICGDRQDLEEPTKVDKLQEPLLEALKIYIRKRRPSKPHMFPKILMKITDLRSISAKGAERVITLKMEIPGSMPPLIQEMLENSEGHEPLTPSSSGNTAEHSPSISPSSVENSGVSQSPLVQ
Procedure: as §1, §2, §3, §4

RARβ [5] = target: T4, RARβ (Homo sapiens, UniProt P10826); test: ligand binding assay, RARβ; settings: results expressed in Ki numbers, read-out: RAR Binding β
T4 sequence (P10826 1-455): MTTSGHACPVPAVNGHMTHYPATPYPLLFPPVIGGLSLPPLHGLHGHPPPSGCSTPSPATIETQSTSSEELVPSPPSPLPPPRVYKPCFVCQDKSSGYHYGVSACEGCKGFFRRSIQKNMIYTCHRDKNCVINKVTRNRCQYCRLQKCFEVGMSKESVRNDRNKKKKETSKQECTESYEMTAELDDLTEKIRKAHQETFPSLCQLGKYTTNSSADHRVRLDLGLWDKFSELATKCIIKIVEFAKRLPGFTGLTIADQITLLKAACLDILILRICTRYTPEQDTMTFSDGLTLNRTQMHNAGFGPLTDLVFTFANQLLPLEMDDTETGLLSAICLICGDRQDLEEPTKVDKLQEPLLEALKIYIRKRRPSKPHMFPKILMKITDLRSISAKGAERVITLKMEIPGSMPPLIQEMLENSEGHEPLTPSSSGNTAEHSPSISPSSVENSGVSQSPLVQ
Source text: as §2, §4

RARγ [6] = target: T5, RARγ (Homo sapiens, UniProt P13631); test: chimeric receptor transactivation assay, RARγ; type: cell-based
T5 construct: % Efficiency γ; other: percentage of maximum compared to standard TTNPB
T5 sequence (P13631 185-454 limits assumed): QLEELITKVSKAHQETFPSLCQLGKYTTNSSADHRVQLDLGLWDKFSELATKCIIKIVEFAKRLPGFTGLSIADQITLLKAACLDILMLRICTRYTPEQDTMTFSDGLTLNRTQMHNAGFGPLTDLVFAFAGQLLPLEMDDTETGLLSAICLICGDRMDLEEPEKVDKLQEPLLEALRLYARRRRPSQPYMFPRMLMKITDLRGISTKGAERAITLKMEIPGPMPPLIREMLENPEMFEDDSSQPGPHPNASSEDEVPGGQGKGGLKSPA
Procedure: as §1, §2, §3, §4

RARα [7] = target: T6, RARα (Homo sapiens, UniProt P10276); test: chimeric receptor transactivation assay, RARα; type: cell-based; settings: chimeric receptor transactivation; read-out: RAR EC50 α
T6 sequence (P10276 183-417 limits assumed): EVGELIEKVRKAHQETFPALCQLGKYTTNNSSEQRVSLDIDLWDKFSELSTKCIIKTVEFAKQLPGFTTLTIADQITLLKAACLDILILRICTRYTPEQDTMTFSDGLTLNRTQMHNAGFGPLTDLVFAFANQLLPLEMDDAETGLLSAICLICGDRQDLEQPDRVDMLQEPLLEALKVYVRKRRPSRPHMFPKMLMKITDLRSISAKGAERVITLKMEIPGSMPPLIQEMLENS
Procedure: as §1, §2, §3, §4

[8] = percentage of maximum compared to standard TTNPB

SMILES: Cc1cc2c(cc1C(/C=C/c1ccc(C(=O)O)cc1)=NO)C(C)(C)CCC2(C)C [Compound 9a, E-4-[3-Hydroxyimino-3-(3,5,5,8,8-pentamethyl-5.6,7,8-tetrahydro-naphthalen-2-yl)-propenyl]-benzoic acid]
- selectivity to the RARγ receptors (RARγ [1]): less selective

SMILES: Cc1cc2c(cc1C(/C=C\c1ccc(C(=O)O)cc1)=NO)C(C)(C)CCC2(C)C [Compound 9b, Z4-[3-hydroxyimino-3-(3,5,5,8,8-pentamethyl-5,6,7,8-tetrahydro-naphthalen-2-yl)-propenyl]-benzoic acid]
- selectivity to the RARγ receptors (RARγ [1]): less selective

Next, values leading:

- selectivity to the RARγ receptors (RARγ [1]): less selective
SMILES: COc1cc2c(cc1C(/C=C/c1ccc(C(=O)O)cc1)=NO)C(C)(C)CCC2(C)C [Compound 13a, E-4-[3-Hydroxyimino-3-(3-methoxy-5,5,8,8-tetramethyl-5,6,7,8-tetrahydro-naphthalen-2-yl)-propenyl]-benzoic acid]

- selectivity to the RARγ receptors (RARγ [1]): less selective
SMILES: COc1cc2c(cc1C(/C=C\c1ccc(C(=O)O)cc1)=NO)C(C)(C)CCC2(C)C [Compound 13b, Z-4-[3-hydroxyimino-3-(3-methoxy-5,5,8,8-tetramethyl-5,6,7,8-tetrahydro-naphthalen-2-yl)-propenyl]-benzoic acid]

- Ki (RARγ [2]): 1850 nM
- Ki (RARα [3]): 8000 nM
- EC50 (RARβ [4]; chimeric receptor transactivation, read-out: RAR EC50 β): 157 nM
- % Efficiency β (RARβ [4]; [8]): 14%
- Ki (RARβ [5]): 28000 nM
- EC50 (RARγ [6]; chimeric receptor transactivation, read-out: RAR EC50 γ): 35 nM
- % Efficiency γ (RARγ [6]; [8]): 67%
- EC50 (RARα [7]): > 1000 nM
SMILES: Cc1cc2c(cc1C(C=Cc1ccc(C(=O)O)cc1)=NO)C(C)(C)CCC2(C)C [drawing 37]
